Assay results: publication PMC3454376, “Salidroside Improves Behavioral and Histological Outcomes and Reduces Apoptosis via PI3K/Akt Signaling after Experimental Traumatic Brain Injury” (PLoS ONE, 2012)
Like-named read-outs stand apart in the source and are kept apart here.

Assays:
[1] = system: mice subjected to controlled cortical impact injury; experiment: Beam walk test after CCI; assay type: in vivo
Experimental: All animal procedures were approved by the Animal Research Committee at Cheng Hsin General Hospital (Animal permit number […] 101-08), and all procedures complied with the Guide for the Care and Use of Laboratory Animals published by the US National Institutes of Health (NIH Publication No. 85-23, revised 1996). Animals were housed under a 12-h light/dark cycle and at constant temperature (21-25°C) and humidity (45-50%). They were allowed free access to pellet chow and water. TBI in mice was induced by a CCI injury model as previously described. Briefly, 8-week-old male C57BL/6 mice (weighing 22-25 g) were anesthetized through the use of intraperitoneal injection of sodium pentobarbital (65 mg/kg; Rhone Merieux, Harlow, UK) and placed in a stereotaxic frame. A 5 mm craniotomy was performed over the right parietal cortex, centered on the coronal suture and 0.1 mm lateral to the sagittal suture, and injury to dura was avoided. […] Body temperature was monitored throughout the surgery by a rectal probe; temperature was maintained at 37.0±0.5°C using a heated pad. […] To determine the optimal dose of salidroside, a pilot study was performed using 2 different doses (20 and 50 mg/kg) administered 10 min after injury, and neurological deficits and tissue damage were evaluated as the main outcomes. […]

[2] = design: method as in PMID 17631426; conditions: rats, cited from earlier work

SMILES: OC[C@H]1O[C@@H](OCCc2ccc(O)cc2)[C@H](O)[C@@H](O)[C@@H]1O [SALD, salidroside]
- beam walk latency versus vehicle group ([1]; 20 mg/kg ip 10 min after CCI, days 4 and 21, P<0.05 and 0.01): significant difference
- beam walk latency, treatment effect versus vehicle ([1]; 50 mg/kg ip 10 min after CCI, P<0.05): significant only at day 4
- mean elimination half-life (t1/2) ([2]; intravenous administration): around 0.5 h
- mean elimination half-life (t1/2) ([2]; oral administration): ~1.1 h
